# From the supplement of paper PMC10307832
# Columns and labels:
# Assay in all cases: relative viability (nuclei count vs DMSO), 5 days (fraction); higher = more cells survive
# Dabrafenib + Trametinib = compound: CC(C)(C)c1nc(-c2cccc(NS(=O)(=O)c3c(F)cccc3F)c2F)c(-c2ccnc(N)n2)s1 [Dabrafenib] + CC(=O)Nc1cccc(-n2c(=O)n(C3CC3)c(=O)c3c(Nc4ccc(I)cc4F)n(C)c(=O)c(C)c32)c1 [Trametinib] (partner 0.02 µM)
# Summary of the method: (§1)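 A single step with final 0.05% Triton X-100, 1% formaldehyde and 1 ug/ml Hoechst fixed the cells and stained nuclei 5 days after treatment. Lung cancer cell lines in 1536-well plates had been treated by pin tool the day after seeding with one drug alone or a fixed anchor-drug dose plus five library-drug doses (not always all listed) in √10 steps, and nuclei were counted on 4× images. Relative viability is the ratio of nuclei in treated wells to nuclei in vehicle wells, taken as the median of duplicate plates.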
# Dabrafenib + Pictilisib = compound: CC(C)(C)c1nc(-c2cccc(NS(=O)(=O)c3c(F)cccc3F)c2F)c(-c2ccnc(N)n2)s1 [Dabrafenib] + CS(=O)(=O)N1CCN(Cc2cc3nc(-c4cccc5[nH]ncc45)nc(N4CCOCC4)c3s2)CC1 [Pictilisib] (partner 1 µM)
# Summary of the method: as §1
# Dabrafenib + AZD7762 = compound: CC(C)(C)c1nc(-c2cccc(NS(=O)(=O)c3c(F)cccc3F)c2F)c(-c2ccnc(N)n2)s1 [Dabrafenib] + NC(=O)Nc1cc(-c2cccc(F)c2)sc1C(=O)N[C@H]1CCCNC1 [AZD7762] (partner 0.2 µM)
# Summary of the method: as §1
# VX-702 + Phenformin = compound: NC(=O)c1ccc(N(C(N)=O)c2c(F)cccc2F)nc1-c1ccc(F)cc1F [VX-702] + N=C(N)NC(=N)NCCc1ccccc1 [Phenformin] (partner 250 µM)
# Summary of the method: as §1
Cell Line,relative viability (Dabrafenib + Trametinib; first compound 0.003 µM),relative viability (Dabrafenib + Trametinib; first compound 0.009487 µM),relative viability (Dabrafenib + Trametinib; first compound 0.03 µM),relative viability (Dabrafenib + Trametinib; first compound 0.09487 µM),relative viability (Dabrafenib + Trametinib; first compound 0.3 µM),relative viability (Dabrafenib + Pictilisib; first compound 0.003 µM),relative viability (Dabrafenib + Pictilisib; first compound 0.009487 µM),relative viability (Dabrafenib + Pictilisib; first compound 0.03 µM),relative viability (Dabrafenib + Pictilisib; first compound 0.09487 µM),relative viability (Dabrafenib + Pictilisib; first compound 0.3 µM),relative viability (Dabrafenib + AZD7762; first compound 0.003 µM),relative viability (Dabrafenib + AZD7762; first compound 0.009487 µM),relative viability (Dabrafenib + AZD7762; first compound 0.03 µM),relative viability (Dabrafenib + AZD7762; first compound 0.09487 µM),relative viability (Dabrafenib + AZD7762; first compound 0.3 µM),relative viability (VX-702 + Phenformin; first compound 0.02 µM),relative viability (VX-702 + Phenformin; first compound 0.2 µM),relative viability (VX-702 + Phenformin; first compound 0.6325 µM),relative viability (VX-702 + Phenformin; first compound 2 µM)
LU99A,0.453,0.384,0.508,0.529,0.574,0.336,0.268,0.342,0.299,0.266,0.55,0.401,0.368,0.352,0.261,0.957,0.851,0.792,0.643
ChaGo-K-1,0.884,0.929,0.933,0.875,0.905,–,0.591,0.749,0.721,0.933,0.303,0.839,0.855,0.698,0.879,0.528,0.462,0.506,0.499
NCI-H2170,0.908,0.982,0.842,0.839,0.919,0.251,0.394,0.293,0.311,0.323,0.282,0.841,0.616,0.64,0.745,0.475,0.442,0.429,0.451
NCI-H2347,–,0.304,0.247,0.265,0.313,0.693,0.6,0.381,0.57,0.459,–,0.63,0.562,0.605,0.598,0.574,–,0.395,0.425
NCI-H1437,0.522,0.502,0.688,0.579,0.73,0.385,0.478,0.481,0.46,0.702,1.09,1.16,1.19,1.11,1.18,0.326,0.352,0.31,0.313
NCI-H520,0.665,0.653,0.541,0.627,0.628,0.344,0.295,0.237,0.265,0.253,–,–,–,–,–,0.67,0.648,0.525,0.535
NCI-H1623,–,–,–,–,–,–,–,–,–,–,–,–,–,–,–,0.583,0.469,0.917,0.535
Calu-6,–,–,–,–,–,0.968,0.913,0.867,0.715,0.694,–,–,–,–,–,–,–,–,–
UMC-11,0.773,0.759,0.495,0.755,0.848,0.749,0.819,0.621,0.832,0.888,–,–,–,–,–,0.34,0.346,0.301,0.363
